How the values were obtained:
prostate = assay: 10-day prostate involution study in rats; assay type: in vivo, rat; settings: for Mean (±SEM) prostate weights: 10 days, intact rats
Description: Enzalutamide and Compound A were orally administered once daily at the indicated doses. After 10 days of treatment, the prostate tissue from each rat was isolated and weighed. Treatment groups (n=5 per group) were compared by one way ANOVA. Note: ns: not significant, *: p<0.05, **: p≤0.01.
To substantiate the on-target mechanism of Compound A, a prostate involution study was conducted in rats. […] Twenty-four hours after the last dose, the rats were euthanized, and the prostate organs were isolated and weighed.

AR H875Y/T878A = target: T1, AR H875Y/T878A (Homo sapiens, UniProt P10275, H875Y/T878A); assay: AR degradation in T-Rex-293 cell line, H875Y/T878A; assay type: cell-based; settings: T-Rex-293, ELISA
T1 construct: expressed in transfected cells; host or cells: T-REx-293
Text: (§1) FIG. 3 is a graph showing Compound A's ability to degrade clinically relevant mutated forms AR.
(§2) To assess the ability of Compound A to degrade variants of the AR, vectors expressing wild-type AR or mutant AR proteins harboring clinically observed mutations in the ligand binding domain (13 with single amino acid changes or 4 with 2 amino acid changes) (Azad A. A., Volik S. V., Wyatt A. W., et al. Androgen receptor gene aberrations in circulating cell-free DNA: biomarkers of therapeutic resistance in castration-resistant prostate cancer. Clin Cancer Res. 2015; 21:2315-2324; Robinson D., Van Allen E. M., Wu Y. M., et al. Integrative clinical genomics of advanced prostate cancer. Cell. 2015; 161:1215-1228; Ledet E. M., Lilly M. B., Sonpavde G., et al. Comprehensive analysis of AR alterations in circulating tumor DNA from patients with advanced prostate cancer. Oncologist.

AR S889G = target: T2, AR S889G (Homo sapiens, UniProt P10275, S889G); assay: AR degradation in T-Rex-293 cell line, S889G; assay type: cell-based; settings: T-Rex-293, ELISA
T2 construct: expressed in transfected cells; host or cells: T-REx-293
Text: as §1, §2

VCaP cells = assay: VCaP cell proliferation in a high androgen environment (R1881); assay type: cell-based, human; settings: Compound A 300 nM vs enzalutamide 1,000 nM, R1881 0.01 to 1 nM, 5 days
Description: Cell proliferation was determined using the CellTiter Glo® assay.

AR T878A/S889G = target: T3, AR T878A/S889G (Homo sapiens, UniProt P10275, S889G/T878A); assay: AR degradation in T-Rex-293 cell line, T878A/S889G; assay type: cell-based; settings: T-Rex-293, ELISA
T3 construct: expressed in transfected cells; host or cells: T-REx-293
Text: as §1, §2

VCaP tumor xenograft = assay: castrated mouse VCaP xenograft model, tumor growth inhibition; assay type: in vivo; settings: castrated mice
Description: Treatment groups (n=10 per group) were compared by one-way analysis of variance (ANOVA). Note: ns: not significant, *: p≤0.05, **: p≤0.01, ***: p≤0.001.
The anti-tumor growth effects of Compound A in vivo were evaluated in the castrated mouse VCaP xenograft model. Briefly, 6- to 8-week-old male CB17/scid mice were implanted with 3×10^6 VCaP tumor cells in the flank region. Once the tumors reached a volume of approximately 100 mm^3, the mice were surgically castrated.

[1] = Compound A in clinical setting: treatment-related adverse events; assay type: in vivo, human; settings: TRAEs, n = 84

T3 sequence (P10275 whole entry T878A/S889G): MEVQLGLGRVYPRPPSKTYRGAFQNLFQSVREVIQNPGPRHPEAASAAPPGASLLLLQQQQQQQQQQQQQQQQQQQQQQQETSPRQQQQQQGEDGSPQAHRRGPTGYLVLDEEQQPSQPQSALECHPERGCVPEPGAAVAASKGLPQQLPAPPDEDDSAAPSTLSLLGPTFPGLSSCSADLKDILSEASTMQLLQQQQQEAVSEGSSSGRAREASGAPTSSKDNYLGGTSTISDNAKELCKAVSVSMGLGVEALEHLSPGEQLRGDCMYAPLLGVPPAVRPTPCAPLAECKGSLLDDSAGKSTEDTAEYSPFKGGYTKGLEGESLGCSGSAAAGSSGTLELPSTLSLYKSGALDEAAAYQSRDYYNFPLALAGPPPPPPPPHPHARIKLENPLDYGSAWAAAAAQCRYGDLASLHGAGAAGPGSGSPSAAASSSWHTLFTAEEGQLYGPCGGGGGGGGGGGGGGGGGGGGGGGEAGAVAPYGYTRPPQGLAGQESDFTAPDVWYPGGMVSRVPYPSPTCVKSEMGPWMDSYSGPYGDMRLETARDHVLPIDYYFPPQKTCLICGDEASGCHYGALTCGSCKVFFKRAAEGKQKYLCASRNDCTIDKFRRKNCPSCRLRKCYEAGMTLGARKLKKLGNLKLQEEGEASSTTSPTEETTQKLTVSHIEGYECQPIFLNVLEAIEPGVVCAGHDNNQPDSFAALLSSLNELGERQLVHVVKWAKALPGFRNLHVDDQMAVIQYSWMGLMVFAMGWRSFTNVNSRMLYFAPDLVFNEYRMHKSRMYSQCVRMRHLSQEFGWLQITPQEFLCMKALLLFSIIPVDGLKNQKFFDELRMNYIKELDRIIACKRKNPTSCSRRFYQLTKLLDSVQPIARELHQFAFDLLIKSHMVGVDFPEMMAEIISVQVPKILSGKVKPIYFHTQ
T1 sequence (P10275 whole entry H875Y/T878A): as the sequence (P10275 whole entry T878A/S889G) above, with H875Y, G889S counted along it
T2 sequence (P10275 whole entry S889G): as the sequence (P10275 whole entry T878A/S889G) above, with A878T counted along it

Question: For COc1cc(O[C@H]2C(C)(C)[C@H](NC(=O)c3ccc(N4CCC(CN5CCN(c6ccc(C(=O)N[C@H]7CCC(=O)NC7=O)c(F)c6)CC5)CC4)cc3)C2(C)C)ccc1C#N [Compound A, 4-(4-((1-(4-(((1R,3R)-3-(4-cyano-3-methoxyphenoxy)-2,2,4,4-tetramethylcyclobutyl)carbamoyl)phenyl)piperidin-4-yl)methyl)piperazin-1-yl)-N—((S)-2,6-dioxopiperidin-3-yl)-2-fluorobenzamide], which “Mean (±SEM) prostate weights” value (prostate; 5 mg/kg/day orally) is on record?
Answer: Its value is 673+105 mg.

Question: And the “Mean (±SEM) prostate weights” value (prostate; 15 mg/kg/day orally)?
Answer: The value was 384 ± 47 mg.

Question: And the “Mean (±SEM) prostate weights” value (prostate; 45 mg/kg/day orally)?
Answer: Its value is 422 ± 56 mg.

Question: And the “prostate weight reduction compared with enzalutamide” value (prostate; all doses tested (5, 15, 45 mg/kg/day))?
Answer: The value was “reduced prostate weights to a greater degree at all doses tested”.

Question: And the DC50 (AR H875Y/T878A)?
Answer: The DC50 was 7.7 nM.

Question: And the DC50 (AR S889G)?
Answer: The DC50 was 3.1 nM.

Question: And the “antiproliferative effects vs enzalutamide” value (VCaP cells)?
Answer: The value was “more potent antiproliferative effects than enzalutamide”.

Question: And the DC50 (AR T878A/S889G)?
Answer: Its DC50 is 3.6 nM.

Question: And the “TGI relative to vehicle control” value (VCaP tumor xenograft; 0.1 mg/kg/day QD for 24 days, statistically insignificant)?
Answer: Its value is 45%.

Question: And the “TGI relative to vehicle control” value (VCaP tumor xenograft; 0.3 mg/kg/day QD for 24 days, statistically insignificant)?
Answer: The value was 49%.

Question: What about the “TGI relative to vehicle control” value (VCaP tumor xenograft; 1 mg/kg/day QD for 24 days) of the same molecule?
Answer: The value was 81%.

Question: What about the “TGI relative to vehicle control” value (VCaP tumor xenograft; 3 mg/kg/day QD for 24 days, oral gavage) of the same molecule?
Answer: The value was 100%.

Question: And the “Alopecia: Any Grade” value [1]?
Answer: Its value is 8 n.

Question: What about the “Alopecia: Grade 3+” value [1] of the same molecule?
Answer: Its value is 0 (0) n (%).

Question: What about the “Anemia: Any Grade” value [1] of the same molecule?
Answer: Its value is 3 n.

Question: What about the “Anemia: Grade 3+” value [1] of the same molecule?
Answer: Its value is 0 (0) n (%).

Question: And the “Any TRAE: Any Grade” value [1]?
Answer: Its value is 55 n.

Question: What about the “Any TRAE: Grade 3+” value [1] of the same molecule?
Answer: The value was 7 (8) n (%).

Question: And the “Aspartate Aminotransferase increase: Any Grade” value [1]?
Answer: Its value is 6 n.

Question: What about the “Aspartate Aminotransferase increase: Grade 3+” value [1] of the same molecule?
Answer: The value was 1 (1) n (%).

Question: What about the “Decreased appetite: Any Grade” value [1] of the same molecule?
Answer: The value was 9 n.

Question: And the “Decreased appetite: Grade 3+” value [1]?
Answer: Its value is 0 (0) n (%).

Question: And the “Diarrhea: Any Grade” value [1]?
Answer: Its value is 9 n.

Question: What about the “Diarrhea: Grade 3+” value [1] of the same molecule?
Answer: Its value is 1 (1) n (%).

Question: And the “Fatigue: Any Grade” value [1]?
Answer: The value was 24 n.

Question: What about the “Fatigue: Grade 3+” value [1] of the same molecule?
Answer: Its value is 2 (2) n (%).

Question: And the “Nausea: Any Grade” value [1]?
Answer: Its value is 12 n.

Question: What about the “Nausea: Grade 3+” value [1] of the same molecule?
Answer: The value was 0 (0) n (%).

Question: And the “Vomiting: Any Grade” value [1]?
Answer: The value was 9 n.

Question: What about the “Vomiting: Grade 3+” value [1] of the same molecule?
Answer: The value was 0 (0) n (%).

Question: What about the “Weight decrease: Any Grade” value [1] of the same molecule?
Answer: The value was 1 n.

Question: What about the “Weight decrease: Grade 3+” value [1] of the same molecule?
Answer: Its value is 0 (0) n (%).
